From article PMC9645410 (Chemical Science, 2022)

Each compound was assayed against GFPxm163 (Aequorea macrodactyla, UniProt Q8WTC8) (assay: fluorescence quenching titration).
Assay type: binding

Sequence of GFPxm163 (Q8WTC8 1-238): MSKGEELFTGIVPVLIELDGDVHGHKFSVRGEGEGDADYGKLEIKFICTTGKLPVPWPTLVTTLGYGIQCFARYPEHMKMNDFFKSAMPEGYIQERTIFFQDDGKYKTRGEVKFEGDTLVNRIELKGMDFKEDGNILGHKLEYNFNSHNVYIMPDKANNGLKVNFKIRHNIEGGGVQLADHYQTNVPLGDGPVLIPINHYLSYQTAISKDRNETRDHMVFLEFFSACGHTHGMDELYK

Row | Structure (SMILES) | Kd
1 | Br [bromide] | 46.2 ± 5.3 mM
2 | I [iodide] | 6.4 ± 0.1 mM
3 | O=[N+]([O-])O [nitrate] | 24.1 ± 0.8 mM
